Source: patent US20170334919A1, “2-((4-AMINO-3-(3-FLUORO-5-HYDROXYPHENYL)-1H-PYRAZOLO[3,4-D]PYRIMIDIN-1 -YL)METHYL)-3-(2-(TRIFLUORO-MET HYL)BENZYL)QUINAZOLIN-4(3H)-ONE DERIVATIVES AND THEIR USE AS PHOSPHOINOSITIDE 3-KINASE INHIBITORS” (RESPIVERT LTD., priority 2013, published 2017)

Legend:
[1] = tested on: ovalbumin-induced airway eosinophilia and neutrophilia in ovalbumin sensitized mice; assay: Ovalbumin-induced airway eosinophil and neutrophil accumulation in mice; format: in vivo, BALB/c mice; settings: 2 hr prior to final OVA challenge
Procedure: BALB/c mice (6-8 weeks old) were immunized with OVA (10 μg/mouse i.p.) on days 0 and 7. In order to elicit a local inflammatory response in the lung, mice were repeatedly challenged between days 13-15 with a nebulised solution of ovalbumin (10 mg/mL, 30 min exposure, De Vilibiss Ultraneb 2000). On day 17 each animal received via intra-tracheal administration of either vehicle or test compound 2 hr prior to the final OVA challenge. Animals were anaesthetized 8 hr later before undergoing a tracheotomy. BAL was obtained by instilling PBS (1 mL) into the lungs, which was then withdrawn. This procedure was repeated to provide approximately 2 mL of lavage fluid. Total cell numbers in the BALF samples were measured using a haemocytometer. Cytospin smears of the BALF samples were prepared by centrifugation at 200 rpm for 5 min at RT and stained using a DiffQuik stain system (Dade Behring) for differential cell counts. Cells were counted using oil immersion microscopy. Data is expressed as differential number of cells per mL of […] (mean±S.E.M).

d-U937 cells = assay: MTT assay, cell viability; format: cell-based, human; settings: 10 μg/mL
Procedure: PMA-differentiated U937 cells were pre-incubated with test compound (10 μg/mL) or vehicle for 4 hr in 5% FCS or 10% FCS for 24 hr. The supernatant was replaced with new media (200 μL) and MTT stock solution (10 μL, 5 mg/mL) was added to each well. After 1 hr incubation, the media were removed, 200 μL of DMSO was added to each well and the plates were shaken lightly for 1 hr prior to reading the absorbance at 550 nm. The percentage loss of cell viability was calculated for each well relative to vehicle (0.5% DMSO)-treatment.

[2] = tested on: LPS-induced airway neutrophilia in mice; assay: LPS-induced airway neutrophil accumulation in mice; format: in vivo, BALB/c mice
Procedure: Non-fasted BALB/c mice (6-8 weeks old) were dosed with vehicle or with test compound by intra-tracheal administration (dose volume 20 μL) at time points T=−2 hr, −8 hr, or −12 hr with respect to the start of LPS treatment. The LPS was prepared in a solution of 0.5 mg/mL and aerosolised using a De Vibliss ultrasonic nebuliser 2000 (7 mL during 30 min exposure). At eight hr after LPS challenge, the trachea was cannulated and bronchoalveolar lavage fluid (BALF) extracted by infusing and then withdrawing PBS (1 mL) into the lungs via the tracheal catheter. This procedure was repeated to give a yield of approximately 2 mL lavage fluid. Total cell numbers in the BALF samples were measured using a haemocytometer. Cytospin smears of the BALF samples were prepared by centrifugation at 1200 rpm for 2 min at RT and stained using a DiffQuik stain system (Dade Behring) for differential cell counts. Cells were counted using oil immersion microscopy. Data are expressed as neutrophil number of cells per mL of BALF (mean±S.E.M).

[3] = tested on: LPS-induced airway neutrophilia in rats; assay: LPS-induced airway neutrophil accumulation in rats; format: in vivo
Procedure: Non-fasted rats were dosed with either vehicle or the test compound by intra-tracheal administration (dose volume 100 μL) at time points T=−2 h, −8 h, or −12 h with respect to the start of LPS treatment. The LPS solution (0.3 mg/mL) was aerosolised using a De Vibliss ultrasonic nebuliser 2000 (7 mL during 30 min). At eight hr after LPS challenge, the trachea was cannulated and bronchoalveolar lavage fluid (BALF) extracted by infusing and then withdrawing PBS (1 mL) into the lungs via the tracheal catheter. This procedure was repeated to provide approximately 2 mL of lavage fluid.
Total cell numbers in the BALF samples were measured using a Countess automated cell counter (Invitrogen). Cytospin smears of the BALF samples were prepared by centrifugation at 1200 rpm for 2 min at RT and stained using a DiffQuik stain system (Dade Behring) for differential cell counts. Cells were counted using oil immersion microscopy. Data are expressed as neutrophil number of cells per mL of BALF (mean±S.E.M).

[4] = tested on: PI3K γ (Akt phosphorylation in d-U937 cells); assay: PI3K γ cell based assay: MCP-1-induced Akt phosphorylation in d-U937 cells; settings: Homo sapiens, dU937; inhibition of induced Akt phosphorylation; read-out: Cellular Activity REC50 values in d-U937 cells, MCP-1 stimulus
Procedure: As a means of assessing the activation of PI3K γ in response to stimuli, the phosphorylation status of the protein, Akt, a downstream product of PI3K γ signalling, was determined following stimulation with MCP-1.
U937 cells were differentiated to macrophage-type cells by incubation with PMA (100 ng/mL) for 48 to 72 hr. Cells were then pre-incubated with either the test compound or vehicle for 2 hr and were then stimulated briefly with MCP-1 (10 nM, 1 min) and the reaction stopped by replacing the media with 4% formaldehyde solution. […] After washing with buffer (PBS containing 0.1% Triton X-100), cells were incubated with an HRP-conjugated secondary antibody (Dako) and the resultant signal was determined colorimetrically (OD: 450 nm with a reference wavelength of 655 nm) using TMB substrate (substrate reagent pack supplied by R&D Systems, Inc.).
This reaction was stopped by addition of 1N H2SO4 solution (100 μL). […] After washing with buffer (PBS containing 0.1% Triton X-100) 1% SDS (100 μL) was added to each well and the plates were shaken lightly for 1 hr prior to measuring the absorbance at 595 nm (Varioskan® Flash, Thermo-Fisher Scientific). The measured OD450-655 readings were corrected for cell number by dividing the OD450-655 by the OD595 readings. The ratio of pAkt signal to total Akt signal was used to quantitate the extent of PI3K γ activation. […]

[5] = 0.05 mg/mL intra-tracheal, pre-dose time 2 hr
[6] = 0.2 mg/mL intra-tracheal, pre-dose time 2 hr
[7] = 0.2 mg/mL intra-tracheal, pre-dose time 8 hr
[8] = 0.2 mg/mL intra-tracheal, pre-dose time 12 h
[9] = 1.0 mg/mL intra-tracheal, pre-dose time 2 hr

With `COCCOCCOCC#Cc1cccc2nc(Cn3nc(-c4cc(O)cc(F)c4)c4c(N)ncnc43)n(Cc3ccccc3C(F)(F)F)c(=O)c12` [Compound (I), 2-((4-Amino-3-(3-fluoro-5-hydroxyphenyl)-1H-pyrazolo[3,4-d]pyrimidin-1-yl)methyl)-5-(3-(2-(2-methoxyethoxy)ethoxy)prop-1-yn-1-yl)-3-(2-(trifluoromethyl)benzyl)quinazolin-4(3H)-one] as the compound, how does the “Cell numbers in BALF, Eosinophils, % inhibition” value ([1]; 0.05 mg/mL intra-tracheal) read?
The value was 3.2 (20) %.

And the “Cell numbers in BALF, Neutrophils, % inhibition” value ([1]; 0.05 mg/mL intra-tracheal)?
The value was 0.4 (18) %.

And the “Cell numbers in BALF, Eosinophils, % inhibition” value ([1]; 0.2 mg/mL intra-tracheal)?
The value was 0.9 (85) %.

And the “Cell numbers in BALF, Neutrophils, % inhibition” value ([1]; 0.2 mg/mL intra-tracheal)?
The value was 0.5 (70) %.

What about the Cell numbers in BALF, Eosinophils, % inhibition ([1]; 1 mg/mL intra-tracheal) of the same compound?
Its Cell numbers in BALF, Eosinophils, % inhibition is 91%.

And the Cell numbers in BALF, Neutrophils, % inhibition ([1]; 1 mg/mL intra-tracheal)?
Its Cell numbers in BALF, Neutrophils, % inhibition is 80%.

What about the “Cell Viability MTT Assay in d-U937 cells at 4 hr” value (d-U937 cells; 4 hr) of the same compound?
The value was “−ve (−ve indicates a value of <30% inhibition at 10 μg/mL)”.

And the “Cell Viability MTT Assay in d-U937 cells at 24 hr” value (d-U937 cells; 24 hr)?
Its value is “−ve (−ve indicates a value of <30% inhibition at 10 μg/mL)”.

What about the “Neutrophil numbers in BALF, % inhibition” value [2, 5] of the same compound?
Its value is 2.5 (19) %.

And the “Neutrophil numbers in BALF, % inhibition” value [2, 6]?
The value was 1.4 (53) %.

What about the “Neutrophil numbers in BALF (mean ± SEM)” value [2, 7] of the same compound?
The value was 9.4 ± 2.0 ×10^5/mL.

What about the “Neutrophil numbers in BALF, % inhibition” value [2, 7] of the same compound?
The value was 45%.

What about the “Neutrophil numbers in BALF, % inhibition” value [2, 8] of the same compound?
Its value is 23%.

And the Neutrophil numbers in BALF, % inhibition [2, 9]?
The Neutrophil numbers in BALF, % inhibition was 68%.

What about the “Neutrophil numbers in BALF, % inhibition” value [3, 5] of the same compound?
The value was 2.3 (9) %.

And the “Neutrophil numbers in BALF, % inhibition” value [3, 6]?
Its value is 1.6 (58) %.

And the “Neutrophil numbers in BALF, % inhibition” value [3, 7]?
The value was 33%.

And the “Neutrophil numbers in BALF (mean ± SEM)” value [3, 8]?
The value was 13.6 ± 2.7 ×10^5/mL.

And the “Neutrophil numbers in BALF, % inhibition” value [3, 8]?
Its value is 10%.

What about the Neutrophil numbers in BALF, % inhibition [3, 9] of the same compound?
Its Neutrophil numbers in BALF, % inhibition is 73%.

What about the EC50 [4] of the same compound?
Its EC50 is 0.0165 µM.
